Data on 5 compounds can be found in patent US12172990B2 (Constellation Pharmaceuticals, Inc., priority 2018, dated 2024).

The target in one assay is full length human TREX1 (Homo sapiens (Human), UniProt Q9NSU2). Kind of assay: TREX1 Biochemical Assay (fluorescence assay measuring degradation of dsDNA substrate). Particulars: 150 pM TREX1, 60 nM dsDNA substrate, 25 minutes at room temperature. Put shortly: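 His-Tev-tagged full-length human TREX1 expressed in E. coli, 150 pM final, with 60 nM TEX615/quencher-labelled 9-mer dsDNA in Tris pH 7.4, NaCl, DTT, BSA, Tween-20, MgCl2 and 1.0% DMSO; 25 min at room temperature, EDTA-quenched. Fluorescence 615 nm (excitation 570 nm); 10-point IC50 by four-parameter fit against pre-quenched and no-inhibitor controls.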

For assay [1], the target named is human TREX2 (residues M44-A279) (Homo sapiens (Human), UniProt Q9BQ50). Kind of assay: TREX2 Biochemical Assay (fluorescence assay measuring degradation of dsDNA substrate). As to conditions: 2.5 nM TREX2, 60 nM dsDNA substrate, 25 minutes at room temperature. The essentials: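 Final conditions: 2.5 nM His-Tev-tagged TREX2 (E. coli-expressed), 60 nM fluorophore/quencher-labelled dsDNA, 50 mM Tris pH 7.4, 150 mM NaCl, 100 mM MgCl2, 1% DMSO; 10-point compound dose-response. Incubated 25 min at room temperature, then EDTA-quenched; fluorescence read at ex 570/em 615 nm. IC50 from four-parameter fit against pre-quenched and no-inhibitor controls.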
Chain of human TREX2 (residues M44-A279) (Q9BQ50 whole entry, the tested form may be a part): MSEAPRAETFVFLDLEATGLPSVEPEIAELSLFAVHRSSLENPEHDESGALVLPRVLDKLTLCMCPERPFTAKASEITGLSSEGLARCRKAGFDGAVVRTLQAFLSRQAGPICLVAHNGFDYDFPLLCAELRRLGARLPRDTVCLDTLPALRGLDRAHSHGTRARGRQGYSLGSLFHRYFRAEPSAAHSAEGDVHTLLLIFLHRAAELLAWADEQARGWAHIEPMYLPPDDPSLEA

Chain of full length human TREX1 (Q9NSU2 whole entry): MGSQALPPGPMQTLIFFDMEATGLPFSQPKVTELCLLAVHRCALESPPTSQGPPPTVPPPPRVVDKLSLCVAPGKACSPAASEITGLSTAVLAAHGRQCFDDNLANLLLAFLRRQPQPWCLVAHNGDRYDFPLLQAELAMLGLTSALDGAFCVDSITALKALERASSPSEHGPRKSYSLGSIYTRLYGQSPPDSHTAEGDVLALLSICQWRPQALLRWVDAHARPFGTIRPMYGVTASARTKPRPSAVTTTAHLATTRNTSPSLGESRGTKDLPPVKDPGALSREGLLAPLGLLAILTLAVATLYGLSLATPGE

Broadly, the IC50 is the concentration at which inhibition is half-maximal. High values mean a need for much substance, low ones inhibition by little substance. For `Cn1c(N2CCN(c3ccccn3)C[C@@H]2c2ccccc2Cl)nc(C(=O)Nc2cnoc2)c(O)c1=O` [Example 125, (S)-2-(2-(2-chlorophenyl)-4-(pyridin-2-yl)piperazin-1-yl)-5-hydroxy-N-(isoxazol-4-yl)-1-methyl-6-oxo-1,6-dihydropyrimidine-4-carboxamide], the results for the IC50 (at full length human TREX1; in assay [1]) were < 0.1 µM and < 1 µM, respectively.
For `CC(=O)N1CCN(c2nc(C(=O)Nc3cnoc3)c(O)c(=O)n2C)[C@H](c2ccccc2Cl)C1` [Example 128, (R)-2-(4-acetyl-2-(2-chlorophenyl)piperazin-1-yl)-5-hydroxy-N-(isoxazol-4-yl)-1-methyl-6-oxo-1,6-dihydropyrimidine-4-carboxamide], in that order: < 0.1 µM and < 1 µM.
In the same order, the values of `Cn1c(C2CCCN(CCc3ccccc3)C2)nc(C(=O)Nc2cnoc2)c(O)c1=O` (stereo not shown) [Example 129, 5-hydroxy-N-(isoxazol-4-yl)-1-methyl-6-oxo-2-(1-phenethylpiperidin-3-yl)-1,6-dihydropyrimidine-4-carboxamide] are > 10 µM and > 100 µM.
For `Cn1c(C2(C)CCCN(C(=O)c3ccc(Cl)c(Cl)c3)C2)nc(C(=O)Nc2cnoc2)c(O)c1=O` (stereo not shown) [Example 130, 2-(1-(3,4-dichlorobenzoyl)-3-methylpiperidin-3-yl)-5-hydroxy-N-(isoxazol-4-yl)-1-methyl-6-oxo-1,6-dihydropyrimidine-4-carboxamide], in that order: 0.1 to 1 µM and 1 to 10 µM.
`Cn1c([C@@H]2CCCN(C(=O)c3ccc(Cl)c(Cl)c3)C2)nc(C(=O)Nc2cnoc2)c(O)c1=O` [Example 131, (R)-2-(1-(3,4-dichlorobenzoyl)piperidin-3-yl)-5-hydroxy-N-(isoxazol-4-yl)-1-methyl-6-oxo-1,6-dihydropyrimidine-4-carboxamide]: the IC50 against full length human TREX1 is < 0.1 µM; in assay [1], < 1 µM.
